Here are results for three compounds from patent publication US7531695B2, “Therapeutic agents for the treatment of cancer, metabolic diseases and skin disorders” (Auspex Pharmaceutical, Inc, priority 2004, dated 2009).

Counter-ions that a name gives are not always drawn.

One experiment has as its system A375 cells. Put plainly: A375 Tumor Cell Proliferation Assay. The format is cell-based. Particulars: Homo sapiens, A-375, read-out: LC50 (50% Lethal Concentration). On the procedure: (§1) A375 cells (5,000 per well in 90% RPMI-1640 plus 10% Fetal Bovine Serum [FBS]) were pre-incubated in a black clear bottom 96-well plate in an atmosphere of 5% CO2 at 37° C. for 24 hours. Stock solutions of compounds in DMSO were diluted using a buffer and dilutions were added to each well. […] The final assay pH was 7.4. The cells were incubated in RPMI-1640 with each compound for an additional 72 to 168 hours. Alamar Blue was added and the plate was incubated for an additional 12 hours. Fluorescence intensity was measured using a Gemini plate reader with excitation at 530 nm and emission at 590 nm. A decrease of 50 percent or more (≧50%) in fluorescence intensity relative to vehicle treated controls is an indication of significant anti-cancer activity.

For experiment [1], the system named is human head and neck squamous cell carcinoma cells (SCC 103). Put plainly: SCC103 Tumor Cell Proliferation Assay. In kind it is cell-based. Particulars: SCC 103 cells; compared to Bexarotene; FIG. 1. As to the method: as §1, with “SCC 103” for “A375”, “(15,000” for “(5,000”, “EMEM medium” for “RPMI-1640”, “EMEM medium” for “RPMI-1640 with each compound”, “72” for “72 to 168”, “Blue (10% of culture volume)” for “Blue”

Take `COc1cccc2c1C(=O)c1c(O)c3c(c(O)c1C2=O)C[C@@](O)(C(=O)CO)C[C@@H]3O[C@H]1C[C@H](N)[C@H](O)[C@H](C)O1` [Doxorubicin]: in the experiment on A375 cells, the CC50 was 8 µM.

In the case of `C=C(c1ccc(C2=C(O)CCCC2=O)cc1)c1cc2c(cc1C)C(C)(C)CCC2(C)C` [Example 5, 5-3-Hydroxy-2-{4-[1-(3,5,5,8,8-pentamethyl-5,6,7,8-tetrahydro-naphthalen-2-yl)-vinyl]-phenyl}-cyclohex-2-enone], the growth inhibitory effect entry in experiment [1] is listed as “enhanced activity”. Same read-out and setting: as for `Cc1cc2c(cc1C(=O)c1ccc(C3=C(O)CCCC3=O)cc1)C(C)(C)CCC2(C)C` [Example 8, 3-Hydroxy-2-[4(3,5,5,8,8-pentamethyl-5,6,7,8-tetrahydronaphthalene-2-carbonyl)-phenyl]-cyclohex-2-enone potassium salt], the entry is “enhanced activity”.
